In data set [1] the test system is refractory eosinophilic esophagitis. Conditions: systemically administered, small case series; cited from earlier work.
Data set [2] deals with eotaxin-3 secretion. Conditions: cells from eosinophilic esophagitis patients; cited from earlier work.
Data set [3] concerns atopic dermatitis. Conditions: placebo-controlled phase IIa study; cited from earlier work.
A short description of data set [4]: UV/Vis spectroscopy of tofacitinib content and spectrum in the polymer film. Type of data set: physicochemical. Conditions: citrate buffer, pH 4.0 with 20% methanol. The method, then: Further, the film was analyzed for the content of tofacitinib. To this end, 6 circular samples with a diameter of 1.9 cm (2.84 cm^2) were cut at random positions of the film and analyzed with a UV/Vis spectroscopy in a citrate buffer, pH 4.0 with 20% methanol. The absorption spectrum is shown in FIG. 10 in comparison to a reference sample (tofacitinib solved in citrate buffer, pH 4.0 with 20% methanol).

Data set [5] relates to eosinophilic esophagitis. Conditions: person, after 3 months of treatment; cited from earlier work.
Data set [6] concerns refractory oral graft-versus-host disease. Conditions: single case, cited from earlier work.

Turning to `Sc1ncnc2nc[nH]c12` [6-mercaptopurine], the “efficacy in the treatment of refractory eosinophilic esophagitis” value in data set [1] is given as “efficient”.

Consider `NC(=O)c1cnc(NCCc2ccc(O)c(Cl)c2)nc1NCc1ccccc1` [AS1517499], for which the “eotaxin-3 secretion by epithelial cells and fibroblasts” value in data set [2] was “block eotaxin-3 secretion”.

`C[C@@H]1CCN(C(=O)CC#N)C[C@@H]1N(C)c1ncnc2[nH]ccc12` [Tofacitinib, tofacitinib]: the “results of topical treatment of atopic dermatitis” value in data set [3] is reported as “convincing results”. Further, in data set [4], the “stability of tofacitinib in the film (absorption spectrum versus reference sample)” value is “can be stably prepared in a film”. Besides, in data set [5], the “appearance of the esophagus” value is reported as “significantly improve the appearance of the esophagus” and the “number of eosinophils found in esophageal biopsies” value is recorded as “least number of eosinophils found in esophageal biopsies”.

Take `Cn1cnc([N+](=O)[O-])c1Sc1ncnc2nc[nH]c12` [azathioprine]: the “efficacy in the treatment of refractory eosinophilic esophagitis” value in data set [1] is “efficient”. Also, the tolerability entry in data set [6] (additional topical administration) was “well tolerated”. Also, in data set [6] (topically and systemically administered suspension), the “clinical benefit of additional topical administration” value was “seemed to add some clinical benefit”.

Turning to `Cc1oncc1C(=O)Nc1ccc(C(F)(F)F)cc1` [leflunomide], in data set [2], the “eotaxin-3 secretion by epithelial cells and fibroblasts” value was “block eotaxin-3 secretion”.

The values are drawn from US20250367113A1, “DRUG DELIVERY SYSTEM COMPRISING AN ANTI-INFLAMMATORY AGENT OR A SALT THEREOF FOR THE APPLICATION TO ESOPHAGEAL MUCOUS MEMBRANES” (EsoCap AG, priority 2022, published 2025).
